# Laboratory results reported in patent publication US11331328B2, “Compositions and methods for inhibiting antiapoptotic Bcl-2 proteins as anti-aging agents” (priority 2014, dated 2022).
# Assays:
# [1] = tested on: senescent HSCs induced by TBI
# Method: The femora and tibiae were harvested from mice immediately after they were euthanized. BM cells were flushed from the bones into HBSS containing 2% FCS using a 21-gauge needle and syringe. […] The labeled mature lymphoid and myeloid cells were depleted twice by incubation with goat anti-rat IgG paramagnetic beads (Dynal Inc, Lake Success, N.Y., USA) at a bead:cell ratio of approximately 4:1. Cells binding the paramagnetic beads were removed with a magnetic field. The negatively isolated Lin^− cells were washed twice with 2% FCS/HBSS and resuspended in complete medium (RPMI1640 medium supplemented with 10% FCS, 2 mM L-glutamine, 10 μM HEPES buffer, and 100 U/ml penicillin and streptomycin) at 1×10^6/ml. HSCs (CD150^+CD48^− LSK^+ cells) were sorted by a BD FACSAria II cell sorter (BD Biosciences, San Jose, Calif.) after Lin^− cells were preincubated with anti-CD16/32 antibody to block the Fcγ receptors and then stained with anti-Sca1-PE, c-Kit-APC-Cy7, CD150-APC and CD48-Pacific blue antibodies. Dead cells were excluded by gating out the cells that stained positive with PI.
# Feeder cell stromal layers were prepared by seeding 10^3/well FBMD-1 stromal cells in each well of flat-bottom 96-well plates (Falcon, Lincoln Park, N.J.). One week later, BM-MNCs resuspended in CAFC medium (Iscove's MDM supplemented with 20% horse serum, 10^−5 M hydrocortisone, 10^−5 M 2-mercaptoethanol, 100 U/ml penicillin, and 100 μg/ml streptomycin) after various treatments described above were overlaid on these stromal layers in 6 dilutions at 3-fold intervals. Twenty wells were plated for each dilution to allow limiting dilution analysis of the precursor cells forming hematopoietic cell clones under the stromal layer. Cultures were fed weekly by changing one-half of the media. The frequencies of CAFC were determined on days 14 and 35. Wells were scored positive if at least one phase-dark hematopoietic clone (containing 5 or more cells) was seen. The frequency of CAFC was then calculated by using Poisson statistics as described previously^9, 10. […]
# [2] = tested on: human renal epithelial cells (REC); assay: Cell viability, IR-SC vs NC, renal epithelial cells; assay type: cell-based; conditions: increasing concentrations, 72 h
# Method: (§1) Human WI-38 fibroblasts (WI38 cells, #CCL-75™), human IMR-90 fibroblasts (IMR90 cells, #CCL-186™), human renal epithelial cells (REC cells, #PCS-400-012™) were obtained from ACTT (Manassas, Va., USA). Mouse embryonic fibroblasts (MEF) were isolated from mouse embryos as described^1. All cells were cultured in a complete medium (CM) (Dulbecco's Modified Eagle Medium supplemented with 10% fetal bovine serum [FBS], 100 U/ml penicillin, and 100 μg/ml streptomycin [all from Atlanta Biologicals, Norcross, Ga., and USA]) in a humidified incubator at 37° C. and 5% CO2. Low passages of WI-38 cells (<25), IMR-90 (<25), REC cells (<25) and MEF (<3) were used as non-senescent controls or for induction of senescence to avoid replicative senescence. To induce replicative senescence, WI-38 cells were subcultivated until cell division ceased after about 38 passages or 60 population doublings (FIG. 5)^2. […]
# (§2) Flow cytometry: Non-senescent and senescent cells were seeded into wells of 24- or 48-well at about 70% of confluence. […] Viable cells (PI^− cells) were numerated by flow cytometry at a constant flow rate and calculated as a percentage of control cells treated with vehicle using the formula: percentage of control=(Ndrug/NC)×100, where Ndrug and NC represent the absolute number of PI^− viable cells of drug-treated and vehicle-treated cells, respectively.
# [3] = tested on: IR-induced senescent WI-38 cells (SC); assay: Cell viability (PI flow cytometry), LD50 in IR-induced senescent WI-38 cells; assay type: cell-based, human
# Method: Mouse embryonic fibroblasts (MEF) were isolated from mouse embryos as described^1. All cells were cultured in a complete medium (CM) (Dulbecco's Modified Eagle Medium supplemented with 10% fetal bovine serum [FBS], 100 U/ml penicillin, and 100 μg/ml streptomycin [all from Atlanta Biologicals, Norcross, Ga., and USA]) in a humidified incubator at 37° C. and 5% CO2. Low passages of WI-38 cells (<25), IMR-90 (<25), REC cells (<25) and MEF (<3) were used as non-senescent controls or for induction of senescence to avoid replicative senescence. […] To induce senescence by expression of oncogenic Ras (Ras^V12), WI-38 cells were infected with the retroviruses pBabe-H-Ras or pBabe-puro (control) (Addgene, Cambridge, Mass., UAS)^2, 3. […] Senescent cells were maintained in culture for a few days, changing the culture medium every 3 days until use. For in vitro cell culture experiments, we usually repeated the experiments for at least three times to ensure the reproducibility of the data. In addition, the repeats of the experiments for three times will allow us to obtain 3 independent observations for statistical analysis.
# Flow cytometry: Non-senescent and senescent cells were seeded into wells of 24- or 48-well at about 70% of confluence. […] Both quiescent non-senescent cells and permanently growth arrested senescent cells were treated with vehicle (0.1% DMSO or PBS) or increasing concentrations of the compounds listed in Table 1 for various durations. […] After incubated with propidium iodide (PI 100 ng/ml) in PBS at room temperature for 1 min, cells were centrifuged at 1200 rpm for 6 min and then resuspended in PBS with 2% of FBS for analysis by a BD LSR II flow cytometer (BD Biosciences, San Jose, Calif., USA). Viable cells (PI^− cells) were numerated by flow cytometry at a constant flow rate and calculated as a percentage of control cells treated with vehicle using the formula: percentage of control=(Ndrug/NC)×100, where Ndrug and NC represent the absolute number of PI^− viable cells of drug-treated and vehicle-treated cells, respectively.
# MTT (3-[4,5-dimethylthiazol-2-yl]-2,5 diphenyl tetrazolium bromide) assay: Cells were harvested, washed and resuspended in CM and added to wells of 24- or 48-well plates as described above. […] After 4 h at 37° C., the formazan was solubilized by lysing the cells with 300 μl of DMSO. Absorbance of formazan was measured at 595 nm using a Microplate Reader (BioTek, Winooski, Vt., USA). Cell viability was calculated in the method as previously described^4.
# Trypan blue exclusion assay: Cells were harvested, washed and resuspended in CM and added to wells of a 6-well plate as described above. […] Living cells stained negative for trypan blue and were counted under light microscopy.
# Briefly, Probit (set as y) was determined by looking up their correspondence to the % responded in Finney's table. The log of the compound concentrations was used as x. By fitting a line of regression, we produce the formula y=ax+b.
# [4] = tested on: senescent WI38 cells induced by expression of oncogenic Ras (Ras-SC); assay: Cell viability, LD50 in oncogenic Ras-induced senescent WI-38 cells; assay type: cell-based, human; conditions: Table 2
# Method: as §1
# as §2, with “respectively. […]” for “respectively.”
structure (smiles),measurement,setting,value
"CC1(C)CCC(c2ccc(Cl)cc2)=C(CN2CCN(c3ccc(C(=O)NS(=O)(=O)c4ccc(N[C@H](CCN5CCOCC5)CSc5ccccc5)c(S(=O)(=O)C(F)(F)F)c4)cc3)CC2)C1 [ABT263, navitoclax]","HSC myeloid skewing, quiescence and persistent DNA damage","[1]; TBI mice, Ki67, γH2AX, BMT","attenuated IR-induced HSC myeloid skewing and disruption of HSC quiescence, and reduced HSCs with persistent DNA damage"
same,BM HSC and HPC numbers,[1]; after ABT263 treatment of CTL or TBI mice,did not quantitatively reduce BM HSCs or hematopoietic progenitor cells (HPCs)
same,clonogenicity (CAFC) and long-term engraftment ability of HSCs,"[1]; day-35 CAFC, competitive and serial BMT",significantly improved the clonogenicity and long-term engraftment ability of HSCs
same,"viable cells, IR-SC vs NC",[2],kills IR-induced senescent cells (IR-SC) but not non-senescent cells (NC)
same,IC50,"[3]; Homo sapiens, WI-38 fibroblasts, IR-induced senescent, LD50 by Probit Analysis, read-out: LD50 (μM) for senescent cells (SC)",0.61 µM
same,LD50,"[3]; Table 2, IR-SC WI38 cells",0.61 µM
same,viable cells by MTT assay and trypan blue exclusion test,"[3]; senescent WI-38, increasing concentrations, 72 h",can dose-dependently kill senescent WI-38 fibroblasts
same,SCs killed,"[3]; ~24 h, 1.25 μM ABT263, IR-SC WI-38",70-80%
same,LD50,[4],0.62 µM
